{"source": "patent US20260124268A1", "about": "(priority 2019, published 2026)", "key": {"[1]": {"assay": "Evaluation of litter score (percent caked litter)", "assay_type": "in vivo, broilers (male Cobb 500)", "conditions": "SF: salinomycin 0.042% in feed; day 28", "protocol": "Evaluation of Litter Score. The litter from each pen was evaluated on day 28 of the trial. The litter was evaluated based on percentage of caked litter in the pen. The percentages were grouped from 0-19, 20-39, 40-59, 60-79, and 80-100%. The mid-value from the percentage range was used to calculate the average pen litter score."}, "[2]": {"assay": "Growth performance and feed efficiency of challenged broilers", "assay_type": "in vivo, broilers (male Cobb 500)", "conditions": "SF: salinomycin 0.042% in feed; for Avg. daily gain / Weight gain: per bird", "description": "Bird Placement. The birds in this study were sourced from a commercial hatchery and were housed at the Colorado Quality Research facility (CQR). Healthy male Cobb 500 were used in this study and were vaccinated for Mareks at the hatchery and upon arrival at CQR the birds were vaccinated for Newcastle and Infectious Bronchitis and were randomly divided into five treatments. At placement 24 birds were placed into each pen with 11 replicates per treatment. On day eight birds were culled or replaced as needed to have 22 birds per pen with the pen being the statistical unit. The treatments were assigned to blocks and randomized within blocks. All birds in this experiment were discarded on site. All data was collected by the Colorado Quality Research (CQR) staff. The protocol MS-18-1 was approved by the CQR IACUC committee.\nBasal and Experimental Diets. The starter, grower, and basal diets were manufactured at the CQR feed mill using CQR formulated diets and described in Table 1. The feed was made and stored in bulk. The final experimental diet mixing, pelleting and crumbling was conducted at CQR using a 500-lb capacity vertical mixer (Seedburo, Golden Valley, MN), a 4000-lb capacity vertical mixer (Prater, Bolingbrook, IL) and/or a 14,000-lb horizontal mixer (H&S Manufacturing, Marshfield, WI) and a California pellet mill (CPM Co., Crawfordsville, IN). The feed was stored in 50-lb feed sacks until needed.\nThe product was made fresh daily and administered in the water using a liquid medicator (Farmer Boy Ag, Myerstown, PA). A different stock solution was prepared for each treatment and the stock solutions were weighed each day to determine the amount of product consumed. The stock solutions were adjusted accordingly to ensure that the correct dose has been administered based on water consumption. The antibiotic control SF birds were administered Salinomycin (Sacox 60, Phibro Animal Health Corp., Teaneck, NJ) in the feed at 0.042% for the whole experimental period. […] If abnormal conditions or abnormal behavior is noted at any of the twice-daily observations they were documented and added to the study records. The maximum and minimum temperatures were recorded daily. The dead birds were collected and counted each day from each pen. The mortality was recorded on pen sheet and the cause of death was recorded. The pen mortality and the NE-associated mortality were calculated based on total mortality and as a percentage. The percentages were calculated based on the number of re-count birds on day 8. The birds were weighed on day 0, 17, 28, and 35 and the average daily gain was calculated for each of these time periods. The final pen weight was also measured. The amount of feed consumed was calculated from the starter feed (DO-17), the grower feed (D18-28), finisher feed (D29-35), and over the whole period (DO-35). The feed efficiency and adjusted feed efficiency were calculated to compare different growth periods. On day 21, 5 birds from each pen were randomly selected using a first caught method. The birds were sacrificed and evaluated for intestinal lesions to score the severity of the lesion scores using the scale in Table 4."}, "[3]": {"tested_on": "Clostridium perfringens (CL-15, Type-A)", "assay_type": "in vivo, broilers (male Cobb 500)", "conditions": "SF: salinomycin 0.042% in feed"}, "[4]": {"tested_on": "Clostridium perfringens (CL-15, Type-A)", "assay_type": "in vivo, broilers (male Cobb 500)", "conditions": "SF: salinomycin 0.042% in feed, day 21"}, "MRSA 81M": {"tested_on": "MRSA 81M", "assay": "microbe, parasite or virus in culture", "assay_type": "cell-based", "conditions": "Staphylococcus aureus, 24 h"}, "MRSA LA": {"tested_on": "MRSA LA", "assay": "microbe, parasite or virus in culture", "assay_type": "cell-based", "conditions": "Staphylococcus aureus, 24 h"}, "[5]": {"conditions": "Day 28-35, % of birds at day 8 re-count"}}, "note": "“And” between values parts separate entries of the source, which are not always exact repeats. Equal entries are not always repeated. Where two headings read alike, the source gives them in different places.", "data": [{"smiles": "CC[C@@H](C(=O)[C@@H](C)[C@@H](O)[C@H](C)[C@@H]1O[C@@H]([C@@H](CC)C(=O)O)CC[C@@H]1C)[C@H]1O[C@]2(C=C[C@@H](O)[C@]3(CC[C@@](C)([C@H]4CC[C@](O)(CC)[C@H](C)O4)O3)O2)[C@H](C)C[C@@H]1C", "note": "[Salinomycin, salinomycin]", "values": [{"measurement": "Average percent caked litter", "setting": "[1]", "result": 79, "unit": "%"}, {"measurement": "Adj. F:G (adjusted feed-to-gain ratio)", "setting": "[2]; D 0-17", "result": 1.287}, {"measurement": "F:G (feed-to-gain ratio)", "setting": "[2]; D 0-17", "result": 1.320}, {"measurement": "Avg. daily gain", "setting": "[2]; D 0-17", "result": 28.1, "unit": "g/day"}, {"measurement": "Weight gain", "setting": "[2]; D 0-17", "result": 0.479, "unit": "kg"}, {"measurement": "Adj. F:G (adjusted feed-to-gain ratio)", "setting": "[2]; D 0-28", "result": 1.368}, {"measurement": "F:G (feed-to-gain ratio)", "setting": "[2]; D 0-28", "result": 1.656}, {"measurement": "Avg. daily gain", "setting": "[2]; D 0-28", "result": 50.3, "unit": "g/day"}, {"measurement": "Weight gain", "setting": "[2]; D 0-28", "result": 1.407, "unit": "kg"}, {"measurement": "Adj. F:G (adjusted feed-to-gain ratio)", "setting": "[2]; D 0-35", "result": 1.448}, {"measurement": "F:G (feed-to-gain ratio)", "setting": "[2]; D 0-35", "result": 1.666}, {"measurement": "Avg. daily gain", "setting": "[2]; D 0-35", "result": 59.6, "unit": "g/day"}, {"measurement": "Weight gain", "setting": "[2]; D 0-35", "result": 2.087, "unit": "kg"}, {"measurement": "Adj. F:G (adjusted feed-to-gain ratio)", "setting": "[2]; D17-28", "result": 1.421}, {"measurement": "Difference in weight gain compared to NTC", "setting": "[2]; D17-28", "result": "−0.21", "unit": "%"}, {"measurement": "F:G (feed-to-gain ratio)", "setting": "[2]; D17-28", "result": 1.947}, {"measurement": "Weight gain less than NTC birds", "setting": "[2]; D17-28", "result": 2, "unit": "grams"}, {"measurement": "Avg. daily gain", "setting": "[2]; D 17-28", "result": 84.4, "unit": "g/day"}, {"measurement": "Weight gain", "setting": "[2]; D 17-28", "result": 0.928, "unit": "kg"}, {"measurement": "Adj. F:G (adjusted feed-to-gain ratio)", "setting": "[2]; D 28-35", "result": 1.654}, {"measurement": "F:G (feed-to-gain ratio)", "setting": "[2]; D 28-35", "result": 1.691}, {"measurement": "Avg. daily gain", "setting": "[2]; D 28-35", "result": 97.1, "unit": "g/day"}, {"measurement": "Weight gain", "setting": "[2]; D 28-35", "result": 0.680, "unit": "kg"}, {"measurement": "Increase in the harvest weight (final pen weight) compared to NTC", "setting": "[2]; day 35", "result": 18.2, "unit": "%"}, {"measurement": "Average pen weight", "setting": "[2]; live pen weight at day 35", "result": "34.59 kg and 34.59a kg"}, {"measurement": "Total Mortality", "setting": "[3]; Day 0-17, % of birds at day 8 re-count", "result": "(2.1%)"}, {"measurement": "Total Mortality", "setting": "[3]; Day 0-17, birds dead", "result": 5}, {"measurement": "Total Mortality", "setting": "[3]; Day 0-35, % of birds at day 8 re-count", "result": "(5.4%)"}, {"measurement": "NE Mortality", "setting": "[3]; Day 0-35, birds dead", "result": 5}, {"measurement": "Total Mortality", "setting": "[3]; Day 0-35, birds dead", "result": 13}, {"measurement": "Total Mortality", "setting": "[3]; Day 17-28, % of birds at day 8 re-count", "result": "(2.1%)"}, {"measurement": "NE Mortality", "setting": "[3]; Day 17-28, birds dead", "result": 4}, {"measurement": "Total Mortality", "setting": "[3]; Day 17-28, birds dead", "result": 5}, {"measurement": "NE Mortality", "setting": "[3]; [5]", "result": "(0.4%)"}, {"measurement": "Total Mortality", "setting": "[3]; [5]", "result": "(1.2%)"}, {"measurement": "NE Mortality", "setting": "[3]; Day 28-35, birds dead", "result": 1}, {"measurement": "Total Mortality", "setting": "[3]; Day 28-35, birds dead", "result": 3}, {"measurement": "Reduction in lesion score compared to NTC", "setting": "[4]", "result": 50.6, "unit": "%"}, {"measurement": "Average lesion score", "setting": "[4]; scale 0-4", "result": 0.80}]}, {"smiles": "CO[C@@]1(NC(=O)Cc2cccs2)C(=O)N2C(C(=O)O)=C(COC(N)=O)CS[C@@H]21", "note": "[cefoxitin]", "values": [{"measurement": "MIC", "setting": "MRSA 81M", "result": 100, "unit": "µg/mL"}, {"measurement": "MIC", "setting": "MRSA LA", "result": 60, "unit": "µg/mL"}]}]}
